Measurements as given in patent US6936628B2, “Oral administration of epothilones” (Bristol-Myers Squibb Company, priority 2002, dated 2005).
Several values for one entry are separate records, joined by “and”; a condition that tells them apart may be missing. Equal values may be shown once.

Experiments:
[1] = cited from earlier work
[2] = system: HCT116/VM46 human colon carcinoma; set-up: species or system nude mice; conditions: mouse, in vivo, iv
[3] = system: Pat-7 human ovarian carcinoma; conditions: mouse, in vivo, iv
[4] = system: Pat-26 human pancreatic carcinoma; conditions: mouse, in vivo, iv
[5] = system: Pat-21 paclitaxel resistant breast cancer model; set-up: species or system nude mice; conditions: mouse, in vivo, iv
[6] = system: A2780Tax human ovarian carcinoma; set-up: species or system nude mice; conditions: mouse, in vivo, iv
HCT116/VM46 cells = test: In vitro cytotoxicity assay (MTS), HCT116/VM46; format: cell-based, human; conditions: concentration for 50% growth inhibition, HCT116/VM46 versus sensitive HCT116
[7] = system: tubulin isolated from calf brain; format: biochemical
in vitro = conditions: human, Caco-2
[8] = system: human ovarian carcinoma xenograft A2780; test: Antitumor activity by parenteral administration to rats, A2780 xenograft; format: in vivo, nude rats
Experimental: The required number of animals needed to detect a meaningful response were pooled at the start of the experiment and each was given a subcutaneous implant of a tumor fragment (≈50 mg) with a 13-gauge trocar. For treatment of early-stage tumors, the animals were again pooled before distribution to the various treatment and control groups. For treatment of animals with advanced-stage disease, tumors were allowed to grow to the pre-determined size window (tumors outside the range were excluded) and animals were evenly distributed to various treatment and control groups. Treatment of each animal was based on individual body weight. Treated animals were checked daily for treatment related toxicity/mortality. Each group of animals was weighed before the initiation of treatment (Wt1) and then again following the last treatment dose (Wt2). The difference in body weight (Wt2−Wt1) provides a measure of treatment-related toxicity.
Tumor response was determined by measurement of tumors with a caliper twice a week, until the tumors reach a predetermined “target” size of 1 gm. Tumor weights (mg) were estimated from the formula: Tumor weight=(length×width^2)÷2
Antitumor activity was evaluated at the maximum tolerated dose (MTD) which is defined as the dose level immediately […] which excessive toxicity (i.e. more than one death) occurred. The MTD was frequently equivalent to OD. When death occurred, the day of death was recorded. Treated mice dying prior to having their tumors reach target size were considered to have died from drug toxicity. No control mice died bearing tumors less than target size. Treatment groups with more than one death caused by drug toxicity were considered to have had excessively toxic treatments and their data were not included in the evaluation of a compound's antitumor efficacy.
Tumor response end-point was expressed in terms of tumor growth delay (T−C value), defined as the difference in time (days) required for the treated tumors (T) to reach a predetermined target size compared to those of the control group (C).
To estimate tumor cell kill, the tumor volume doubling time was first calculated with the formula: TVDT=Median time (days) for control tumors to reach target size−Median time (days) for control tumors to reach half the target size and Log cell kill=T−C÷(3.32×TVDT)
Compound A was evaluated versus the human ovarian carcinoma xenograft A2780 grown in nude rats. […] In comparison, Compound B produced 3.3 LCK at its MTD (2.4 mg/kg/inj, IV, every 8 days×2).

For CCCC(=O)Nc1ccc(OCC(O)CNC(C)C)c(C(C)=O)c1 (stereo not drawn) [acebutalol], the “extent of absorption in humans (% absorbed)” value (shortened to “extent … (% absorbed)”) [1] is listed as 40%.
For CC(=O)O[C@H]1C(=O)[C@@]2(C)[C@H]([C@H](OC(=O)c3ccccc3)[C@]3(O)C[C@H](OC(=O)[C@H](O)[C@@H](NC(=O)c4ccccc4)c4ccccc4)C(C)=C1C3(C)C)[C@]1(OC(C)=O)CO[C@@H]1C[C@@H]2O [Paclitaxel], the “LCK (gross log cell kill)” value [2] was 0.55^3, the “LCK (gross log cell kill)” value [3] was 0.8^3 and the “LCK (gross log cell kill)” value [4] was 0.4. The “LCK (gross log cell kill)” value [5] was 0.3^3, the “LCK (gross log cell kill)” value [6] was 0.8^3 and the “R/S, or resistance ratio” value (HCT116/VM46 cells) was 155 fold.
In the case of C/C(=C\c1csc(C)n1)[C@@H]1C[C@@H]2O[C@@H]2CCC[C@H](C)[C@H](O)[C@@H](C)C(=O)C(C)(C)[C@@H](O)CC(=O)O1 [BMS-212188 (Epothilone A), Epothilone A], the “Polymerization Potency, EC0.01” value [7] is reported as 2.0 µM and the “Ratio of Polymerization Potency of Analog/Paclitaxel” value (shortened to “Ratio … of Analog/Paclitaxel”) [7] is reported as 0.4.
In the case of OC[C@@H](O)[C@@H](O)[C@H](O)[C@H](O)CO [mannitol], the Papp (in vitro) is listed as 3.2 ×10⁻⁶ cm/s and the “extent … (% absorbed)” value [1] is listed as 15%.
With C/C(=C\c1csc(C)n1)[C@@H]1C[C@@H]2O[C@]2(C)CCC[C@H](C)[C@H](O)[C@@H](C)C(=O)C(C)(C)[C@@H](O)CC(=O)N1 (relative stereo) [Compound B, [1S-[1R*,3R*(E),7R*,10S*,11R*,16S*]]-7,11-dihydroxy 8,8,10,12,16-pentamethyl-3-[1-methyl-2-(2-methyl-4-thiazolyl)ethenyl-17-oxa-4-azabicyclo[14.1.0]heptadecane-5,9-dione] the LCK [3] was 1.9, the “LCK (gross log cell kill)” value [4] was 1.2 and 1.2^3 and the LCK ([8]; A2780 in nude rats, IV, every 8 days×2, at MTD) was 3.3. The MTD ([8]; nude rats bearing A2780, IV, every 8 days×2) was 2.4 mg/kg/inj, the “Polymerization Potency, EC0.01” value [7] was 3.5 µM and the “Ratio … of Analog/Paclitaxel” value [7] was 0.4.
In the case of CN/C(=N/CCSCc1nc[nH]c1C)NC#N [cimetidine], the Papp (in vitro) is listed as 4.9 ×10⁻⁶ cm/s and the “extent … (% absorbed)” value [1] is listed as 95%.
With “Epothilone B [BMS-205535 (Epothilone B)]” the “Polymerization Potency, EC0.01” value [7] was 1.8 µM and the “Ratio … of Analog/Paclitaxel” value [7] was 0.3.
